Measured values taken from publication PMC3793860, “A role for the vesicle-associated tubulin binding protein ARL6 (BBS3) in flagellum extension in Trypanosoma brucei” (Biochimica et Biophysica Acta, 2012).

Target: T1, TbARL6 (Trypanosoma brucei, UniProt Q57UH8)
T1 construct: gene Tb08.5H5.790; N-terminal His-tagged recombinant TbARL6 (nucleotides 1–570 of the ORF, Tb927.8.5060), expressed in E. coli
T1 sequence (Q57UH8 1-189): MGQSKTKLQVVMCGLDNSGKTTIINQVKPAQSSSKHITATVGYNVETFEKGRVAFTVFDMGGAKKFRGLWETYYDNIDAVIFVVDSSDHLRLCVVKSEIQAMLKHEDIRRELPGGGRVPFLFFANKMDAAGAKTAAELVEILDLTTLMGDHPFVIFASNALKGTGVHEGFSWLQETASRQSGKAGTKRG
Experiment: mant fluorescence titration, one-site non-linear regression; displacement kinetics
Type: binding

Row | Compound | Kd [µM]
1 | CNc1ccccc1C(=O)O[C@H]1[C@@H](O)[C@H](n2cnc3c(=O)[nH]c(N)nc32)O[C@@H]1COP(=O)(O)OP(=O)(O)OP(=O)(O)O [mGTP, mantGTP] | 13.7
2 | CNc1ccccc1C(=O)O[C@H]1[C@@H](O)[C@H](n2cnc3c(=O)[nH]c(N)nc32)O[C@@H]1COP(=O)(O)OP(=O)(O)O [mGDP, mantGDP] | 4.35
